The target in assay [1] is T1, MT2 receptor (Homo sapiens, UniProt P49286).
T1 sequence (P49286 1-362): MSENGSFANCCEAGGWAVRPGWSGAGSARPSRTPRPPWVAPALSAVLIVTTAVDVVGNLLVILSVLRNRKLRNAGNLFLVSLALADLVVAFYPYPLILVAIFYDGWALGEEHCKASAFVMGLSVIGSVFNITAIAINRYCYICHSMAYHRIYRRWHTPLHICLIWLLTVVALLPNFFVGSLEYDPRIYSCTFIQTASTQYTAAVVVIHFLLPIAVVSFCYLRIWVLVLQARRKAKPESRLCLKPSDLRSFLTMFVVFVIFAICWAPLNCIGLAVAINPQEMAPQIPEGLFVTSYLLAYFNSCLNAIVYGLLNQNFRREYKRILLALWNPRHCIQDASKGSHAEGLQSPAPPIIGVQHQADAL
Nature of the assay: FLIPR Ca2+ mobilization assay, MT2. Type of assay: cell-based. Also noted: expressed in transfected cells; host or cells: COS-7 (monkey kidney fibroblast). Particulars: for agonist character / receptor subtype selectivity in words: FLIPR results, MT1 versus MT2; for Emax: read-out: % Response of 2-IMT; for % Response of 2-IMT: relative to 2-IMT response. Here is the method:
1. FLIPR Ca^2+ Mobilization Assay
This assay indicates the ability of the novel compounds to activate MT1 and MT2 receptors by measuring downstream events of the activated receptor, in this case intracellular calcium mobilization.
1. Intracellular Ca^2+ Mobilization Assay Using Fluorometric Imaging Plate Reader (FLIPR®)
An intracellular calcium mobilization assay was performed to screen the isoquinolone compounds against the two melatonin receptor subtypes, MT1 and MT2 on the fluorometric imaging plate reader (FLIPR®). In order to facilitate the screening process in a high-throughput manner, chimeric G proteins with the ability to couple to a range of GPCR as well as activate intracellular Ca^2+ were employed. The melatonin receptor subtype (either MT1 or MT2) was co-expressed with the G-protein chimeras in COS-7 (monkey kidney fibroblast) cells. During the assay, cells were exposed to the novel isoquinolone compounds and the corresponding change in fluorescence was measured. Both single point and dose-dependant assays were performed for each isoquinolone compound and based on the latter a dose response curve was generated and the corresponding EC50 for each receptor subtype determined.
Specifically, COS-7 cells were seeded at a density of 20,000 cells/well into 96-well plates designed for FLIPR assays, using Opti-MEM with 10% FCS at a volume of 100 μl/well. Transfection was carried out using Lipofectamine 2000® reagent. In each well, 0.2 μg of the GPCR and G protein cDNA were diluted with 25 μl of Opti-MEM and 0.2 μl of Lipofectamine 2000® was diluted with another 25 μl of Opti-MEM. They were added to appropriate wells after the two components were mixed for 20 min.
After 48 hours of incubation post-transfection, 50 μl of the transfection medium was removed from each well followed by the labelling of transfected cells with 100 μl of 2 μM Fluo-4 in calcium containing HBSS (Hank's balanced salt solution) with 20 mM HEPES (N-[2-hydroxyethyl]piperazine—N′-[2-ethanesulfonic acid]; pH 7.5) and 2.5 mM probenecid (anion exchanger inhibitor, freshly prepared) for 1 hour at 37° C. 70 μl of 3× drugs (isoquinolinone compounds encompassing the invention) were prepared and aliquoted into the corresponding wells in the V-well drug plate. Changes in fluorescence were detected in the FLIPR 96 with an excitation wavelength of 488 nm. The background fluorescence was adjusted to the range of 8,000 to 12,000 units by altering the laser power and exposure time (typically 0.4 W and 0.4 sec, respectively) for the FLIPR setup. 50 μl of each agonist solution was added to the corresponding wells and the fluorescent emission (between 510 and 560 nm) was monitored for 3 min. Results were expressed as change in fluorescent intensity units (FIU). Concentration-response curves were generated by determining the maximal change in FIU of each data set. Numerical analysis of the statistics and EC50 (median effective concentration) values were performed on GraphPad Prism version 3.03.
Then the intracellular Ca^2+ mobilization assays using the Fluorometric Imaging Plate Reader (FLIPR®) were performed as described above.
In general terms: Calcium assays in cells follow changes in intracellular calcium, usually with a dye or a luminescent sensor.

For assay [2], the target named is MT1 receptor (Homo sapiens, UniProt P48039). In words: CRE-Luc (luciferase reporter gene) assay, MT1. Type of assay: cell-based. Particulars: HEK 293-pCREluc cells with MT1; inhibition of forskolin response. Set-up: expressed in transfected cells. The protocol: The luciferase reporter gene assay offers another way to measure melatonin receptor activation. Cells expressing cAMP-responsive element-driven luciferase reporter gene (293-pCREluc) and either the MT1 or MT2 receptor are treated with forskolin (a substance which stimulates cAMP production as well as the subsequent luciferase gene expression) alone or with a novel isoquinolone compound. As melatonin receptor activation inhibits cAMP production, any suppression in the expression of luciferase leads to a decrease in enzymatic activities and a reduction in the amount of luminescence signal generated.
Sequence of MT1 receptor (P48039 whole entry): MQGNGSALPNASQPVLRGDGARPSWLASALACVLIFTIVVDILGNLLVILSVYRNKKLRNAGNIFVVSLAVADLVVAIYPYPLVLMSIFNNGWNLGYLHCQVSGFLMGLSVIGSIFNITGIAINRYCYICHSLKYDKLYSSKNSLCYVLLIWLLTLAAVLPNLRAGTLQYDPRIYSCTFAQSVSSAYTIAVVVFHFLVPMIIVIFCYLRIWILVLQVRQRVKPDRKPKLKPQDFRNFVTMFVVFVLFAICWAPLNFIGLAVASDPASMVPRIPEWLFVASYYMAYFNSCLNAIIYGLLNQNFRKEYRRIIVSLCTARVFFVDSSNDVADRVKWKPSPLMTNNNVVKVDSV
The luciferase assay, a reporter gene assay, was performed to confirm the ability of the invention to activate the melatonin receptors. Prior to the assay, HEK (human embryonic kidney) 293 cells are stably transfected with cAMP-responsive element-driven luciferase reporter gene (293-pCREluc) and cDNAs encoding MT1 or MT2 receptors. The cells are then exposed to the novel isoquinolone compounds, after which the substrate luciferin is added and the resulting luminescence measured.
Prior to the assay human embryonic kidney (HEK) 293 cells (CRL-1573, ATCC) is maintained at 37° C. in minimum essential medium (MEM) supplemented with 10% fetal bovine serum (FBS), 100 units/ml penicillin and 100 μg/ml streptomycin in a humidified atmosphere containing 5% CO2. Human embryonic kidney 293 cells stably transfected with cAMP-responsive element-driven luciferase reporter gene (293-pCREluc) are established and maintained in growth medium supplemented with 300 μg/ml G418 sulphate.
For luciferase assays, HEK-293 cells stably expressing pCRE-luciferase are seeded at a density of 15,000 cells/well into 96 well plates. Transfection is carried out using Lipofectamine Plus® reagent at 0.2 μl of both Plus and lipofectamine reagents with 50 ng cDNAs encoding MT1 or MT2 receptors per well. After a 3 hour transfection period at 37° C., 50 μl of DMEM with 20% fetal calf serum (FCS) is added into the wells and the plate is incubated at 37° C. for 48 h prior to 24 hour serum starvation. […]
Cells are harvested by replacing medium in the well by 50 μl luciferase lysis buffer. The Berthold microplate luminometer is maintained at 25° C. throughout the assay. Injector M connected to an empty tube and P connected to the drug tube are set to inject 25 μl of luciferin into appropriate wells. A 1.6 second delay time followed by a 1 second measuring time period is assigned to injector M, whereas injector P is measured for 10 seconds after luciferase substrate is introduced into the well. Results are expressed as relative luminescent units (RLU). Where indicated, agonist-induced activity is expressed as a percentage of the RLU obtained with forskolin.
A general note: Reporter assays use an easily measured gene product as a stand-in for the process of interest.

[3] abbreviates: Table 1, MT2 in COS-7 cells with chimeric G protein, log value, negative, NSR = no significant response, read-out: Log(EC50) ± SEM (converted).
The mark [4] stands for this setting: Table 1, MT2 in COS-7 cells with chimeric G protein, log value, negative, NSR = no significant response.
The mark [5] stands for this setting: Table 2, MT2, log value, negative.

Where two headings read alike, the source gives them in different places.

Turning to `COc1cccc(COc2cc3c(=O)n(C)ccc3cc2OC)c1` [IS521], in assay [1], the “agonist character / receptor subtype selectivity in words” value was “very potent full agonists with high MT2 selectivity” and the Emax is 98.9%. In addition, in assay [1] (setting [3]), the EC50 (usually the midpoint of the concentration-response curve) was 11.5 nM. Moreover, the “% Resp of 2-IMT” value in assay [1] (Table 2, MT2) was found to be 98.9%. In addition, in assay [1] (Table 2, MT2, read-out: EC50), the EC50 turned out to be 11.4 nM. Moreover, the “CRE-Luc Assay MT1 % Inh ± SEM of 1 μM Fsk” value in assay [2] is listed as 84.2 ± 5.5%.

With `COc1cccc(COc2cc3ccn(C)c(=O)c3cc2OC)c1` [IS044], the “agonist character / receptor subtype selectivity in words” value in assay [1] is listed as “very potent full agonists with high MT2 selectivity”. For the same molecule, the “% Response of 2-IMT” value in assay [1] (Table 1, MT2) was 94.9%. Besides, the “Log(EC50) ± SEM” value in assay [1] (setting [4]) is recorded as −8.42 ± 0.25. For the same molecule, the “% Resp of 2-IMT” value in assay [1] (Table 2, MT2) is given as 94.9%. Moreover, the “logEC50 ± SEM” value in assay [1] (setting [5]) was −8.42 ± 0.25. For the same molecule, the EC50 in assay [1] (Table 2, MT2, read-out: EC50) came out at 3.8 nM. Further, the “CRE-Luc Assay MT1 % Inh ± SEM of 1 μM Fsk” value in assay [2] is reported as 82.3 ± 6.0%.

Take `COc1cc(COc2cc3c(=O)n(C)ccc3cc2OC)cc(OC)c1` [IS523]: in assay [1], the “agonist character / receptor subtype selectivity in words” value was “very potent full agonists with high MT2 selectivity” and the Emax was 61%. Also, the concentration giving a half-maximal response (EC50) in assay [1] (setting [3]) was 45.7 nM. Besides, the “% Resp of 2-IMT” value in assay [1] (Table 2, MT2) stood at 61.0%. For the same molecule, in assay [1] (Table 2, MT2, read-out: EC50), the 50% effective concentration (EC50) was determined as 45.4 nM. For the same molecule, the “CRE-Luc Assay MT1 % Inh ± SEM of 1 μM Fsk” value in assay [2] is 70.4 ± 5.6%.

Turning to `COc1cc2ccn(C)c(=O)c2cc1OCc1ccc(C(C)(C)C)cc1` [IS526], the “% Response of 2-IMT” value in assay [1] (Table 1, MT2) stood at 88.6%. In addition, in assay [1] (setting [4]), the “Log(EC50) ± SEM” value is on record as −5.42 ± 0.76. The “% Resp of 2-IMT” value in assay [1] (Table 2, MT2) is on record as 88.6%. Besides, the “logEC50 ± SEM” value in assay [1] (setting [5]) is on record as −5.42 ± 0.76. For the same molecule, the concentration giving a half-maximal response (EC50) in assay [1] (Table 2, MT2, read-out: EC50) turned out to be 3770 nM. Also, the “CRE-Luc Assay MT1 % Inh ± SEM of 1 μM Fsk” value in assay [2] stood at 36.2 ± 11.8%.

With `COc1cccc(COc2c(OC)ccc3c(=O)n(C)ccc23)c1` [IS527], in assay [1], the “activity / efficacy at MT2 compared to 2-IMT” value is on record as about 65% and the Emax was 65.9%. The “% Resp of 2-IMT” value in assay [1] (Table 2, MT2) was determined as 65.9%. Further, the EC50 in assay [1] (Table 2, MT2, read-out: EC50) was 5.78 nM. Also, in assay [1] (read-out: EC50 MT2), the EC50 is 5.78 nM. Further, the “CRE-Luc Assay MT1 % Inh ± SEM of 1 μM Fsk” value in assay [2] was 82.4 ± 6.4%.

For the molecule `COc1ccc2c(=O)n(C)ccc2c1OCc1ccc(C)cc1` [IS529], in assay [1], the “agonist character / receptor subtype selectivity in words” value is listed as “activated MT2 only” and the Emax was 53.6%. Besides, in assay [1] (setting [3]), the concentration giving a half-maximal response (EC50) is 64.6 nM. In assay [1] (Table 2, MT2), the “% Resp of 2-IMT” value is recorded as 53.6%. The concentration for a half-maximal effect (EC50) in assay [1] (Table 2, MT2, read-out: EC50) was determined as 65.2 nM. Further, in assay [2], the “CRE-Luc Assay MT1 % Inh ± SEM of 1 μM Fsk” value is 67.7 ± 5.4%.

Consider `Cn1ccc2cc(OC(=O)c3ccccc3)c(OC(=O)c3ccccc3)cc2c1=O` [IS039], for which the “% Response of 2-IMT” value in assay [1] (Table 1, MT2) came to 61.0%. In addition, in assay [1] (setting [4]), the “Log(EC50) ± SEM” value is −8.64 ± 0.20. Moreover, in assay [1] (Table 2, MT2), the “% Resp of 2-IMT” value turned out to be 61.0%. In addition, the “logEC50 ± SEM” value in assay [1] (setting [5]) was −8.64 ± 0.20. Moreover, the concentration giving a half-maximal response (EC50) in assay [1] (Table 2, MT2, read-out: EC50) is 2.31 nM. For the same molecule, the “CRE-Luc Assay MT1 % Inh ± SEM of 1 μM Fsk” value in assay [2] worked out at 73.0 ± 5.0%.

As for `COc1cc(COc2cc3ccn(C)c(=O)c3cc2OC)cc(OC)c1` [IS042], in assay [1], the “agonist character / receptor subtype selectivity in words” value is reported as “very potent full agonists with high MT2 selectivity”. For the same molecule, the EC50 in assay [1] (setting [3]) was 0.38 nM; in assay [1] (Table 2, MT2, read-out: EC50), 0.379 nM. For the same molecule, the “% Resp of 2-IMT” value in assay [1] (Table 2, MT2) was 84.5%. Moreover, in assay [1], the Emax worked out at 84.5%. For the same molecule, in assay [2], the “CRE-Luc Assay MT1 % Inh ± SEM of 1 μM Fsk” value is reported as 73.9 ± 7.8%.

Consider `COc1cc(COc2c(OC)ccc3c(=O)n(C)ccc23)cc(OC)c1` [IS528], for which, in assay [1], the “activity / efficacy at MT2 compared to 2-IMT” value is on record as about 65%. The “% Response of 2-IMT” value in assay [1] (Table 1, MT2) is on record as 64.8%. In assay [1] (setting [4]), the “Log(EC50) ± SEM” value is given as −9.43 ± 0.75. In assay [1] (Table 2, MT2), the “% Resp of 2-IMT” value was 64.8%. In assay [1] (setting [5]), the “logEC50 ± SEM” value is listed as −9.43 ± 0.75. For the same molecule, the EC50 in assay [1] (Table 2, MT2, read-out: EC50) came out at 0.369 nM; in assay [1] (read-out: EC50 MT2) it was 0.37 nM. In assay [2], the “CRE-Luc Assay MT1 % Inh ± SEM of 1 μM Fsk” value turned out to be 69.7 ± 10.1%.

The values are drawn from patent US8389544B2, “Isoquinolone compounds as subtype-selective agonists for melatonin receptors MT1 and MT2” (The Hong Kong University of Science and Technology, priority 2007, dated 2013).
